Laboratory results reported in patent publication US9540337B2, “Gamma-glutamyl transpeptidase inhibitors and methods of use” (The Board of Regents of the University of Oklahoma, priority 2012, dated 2017).
Where two headings read alike, the source gives them in different places.

How the values were obtained:
[1] = molecular target: T1, Human GGT1 (hGGT) (Homo sapiens, UniProt P19440); experiment: D-GpNA Hydrolysis Assay (release of pNA, 405 nm, pH 7.4)
Experimental: (§1) Enzyme Isolation: Human GGT1 (P19440), lacking the transmembrane domain, was expressed in Pichia pastoris and isolated as previously described (14). […] One unit of GGT activity was defined as the amount of enzyme that released 1 μmol of paranitroaniline/min at 37° C. at pH 7.4 in the transpeptidation reaction.
The reaction was initiated with the addition of 19 mU GGT. The reaction was incubated at 37° C. and monitored continuously at 405 nm by a Bio-Rad model 680 microplate reader with Microplate Manager 5.2 software (Bio-Rad, Hercules, Calif.).
Data Analysis: Samples in each experiment were run in triplicate. Each inhibitor was evaluated in two or more independent experiments. Double reciprocal plots were generated to assess data quality and determine the correct rate equation for data fitting. Data were fitted using the proper rate equation and the Marquardt-Levenberg algorithm supplied with the Enzfitter program (BIOSOFT, Cambridge, UK). Kinetic parameters with standard errors were estimated using a simple weighting method.
Data adhering to Michaelis-Menten Kinetics were fitted to eq. 1. Data for initial rate patterns with D-, L-GpNA varied at different fixed levels of glygly were fitted to eq. […] Data for competitive and uncompetitive inhibition were fitted to eqs. 3 and 4. Data for the dependence of Vmax and Vmax/KD-GpNA on the concentration of activator were fitted using eq. 5 (25).
In eqs 1-6, Vmax are the initial and maximum rates, respectively, Ka and Kb are Michaelis constants for substrates A and B, respectively, and Kis and Kii are slope and intercept inhibition constants. In eq. 5, a is the value of Vmax or Vmax/KD-GpNA at zero activator/inhibitor, KID is the activation or inhibition constant, and KIN is a constant that causes the parameter to go to a constant value at infinite concentrations of X, the activator/inhibitor. The product a(KID/KIN) is the value of Vmax or Vmax/KD-GpNA at infinite activator/inhibitor (25). Data for noncompetitive inhibition were fitted to eq. 6. Data for the dependence of Vmax and Vmax/KD-GpNA on the concentration of activator were fitted using […].
as §1, with “hGGT” for “Human GGT1”, “described.” for “described (14).”, “reaction with L-GpNA.” for “reaction.”
D-GpNA Hydrolysis Assay: The assay was carried out as previously described. […] The reaction was initiated with the addition of 19 mU GGT as determined by the L-GpNA transpeptidation assay. The reaction was incubated at 37° C. and monitored continuously at 405 nm.

[2] = molecular target: T2, hGGT (Homo sapiens, UniProt P19440); experiment: L-Glutamate Release Assay (Hydrolysis of GSH); type: biochemical; details: for Ki: GSH hydrolysis, read-out: GSH Kii
T2 construct: lacking the transmembrane domain; made in house; host or cells: Pichia pastoris
Experimental: L-Glutamate Release Assay (Hydrolysis of GSH): This assay measures the production of glutamate from the hydrolysis of GSH by GGT enzyme and has been described in detail previously. The concentration of the substrate, GSH, was varied from 5 μM to 20 μM. The concentration of the inhibitors, OU749 and its analogs, were varied from 15.6 μM to 250 μM. The reaction was initiated with the addition of 10 mU hGGT. […] All compounds were also evaluated as inhibitors of glutamate dehydrogenase, the enzyme in the second half of the L-glutamate release assay. None of the compounds in this study inhibited glutamate dehydrogenase.

[3] = Cytotoxicity in dividing 786-O cells (MTT assay, 72 hours); type: cell-based, human; details: human, 786-o cells, dividing 786-O cells, 72 hours; read-out: LD50
Experimental: (§2) Cell Lines: 786-0 cells (ATCC CRL-1932), a human renal adenocarcinoma cell line, were grown in Dulbecco's Modified Eagle's Medium (DMEM) supplemented with 10% fetal bovine serum (FBS) and penicillin/streptomycin (50 units/ml, 50 μg/ml). NIH3T3 cells (ATCC CRL 1658) which are GGT-negative and NIH3T3 cells expressing hGGT [described previously were grown in DMEM/F12 media supplemented with 5% FBS and 0.2 mg/ml G418.
(§3) Cytotoxicity Assays: 786-0 cells were plated at 10^3 cells/well in a 96-well plate in DMEM supplemented with 10% FBS and penicillin/streptomycin (50 units/ml, 50 μg/ml). After 24 hours, the media was changed to fresh media containing OU749 analogs. A 100 mM stock of OU749 and each of its analogs were made in DMSO then diluted in DMEM. Control wells were treated with equivalent concentrations of DMSO. Cell viability was determined 72 hours after the addition of the inhibitors by the MTT assay. For the toxicity of the OU749 and its analogs in 786-0 cells, all determinations were done in triplicate. The LD50 of each compound and the standard deviation (S.D.) were calculated with a Prism log (inhibitor) versus normalized response (variable slope) curve fit (Prism, GraphPad Software Inc., San Diego, Calif.).

[4] = molecular target: T1, Human GGT1 (hGGT); experiment: L-GpNA Transpeptidation Assay with GlyGly as acceptor; type: biochemical; set-up: lacking the transmembrane domain; made in house; host or cells: Pichia pastoris
Experimental: Transpeptidation Reaction: The same assay buffer was used for both the hydrolysis reaction and the transpeptidation reaction. The transpeptidation reaction included 40 mM glycylglycine (glygly, Sigma, St. Louis, Mo.) as the acceptor. […] The concentration of L-GpNA was 3 mM for experiments in which the concentration of glygly was varied. To initiate the transpeptidation reaction, 4 mU GGT were added.
1. […] 3 and 4. […] 5 (25).
L-GpNA Transpeptidation Assay: The assay has been described previously. […] The concentration of L-GpNA was 3 mM for experiments in which the concentration of GlyGly was varied. To initiate the transpeptidation reaction, 4 mU GGT were added.

[5] = molecular target: T3, Human GGT1 (Homo sapiens, UniProt P19440); experiment: Initial rate studies with D-GpNA and L-GpNA, with or without acceptor GlyGly; type: biochemical; details: for second order rate constant: rounded in discussion; for fold increase of Vmax in the presence of GlyGly: plus vs minus GlyGly
T3 construct: lacking the transmembrane domain; made in house; host or cells: Pichia pastoris
Experimental: Transpeptidation Reaction: The same assay buffer was used for both the hydrolysis reaction and the transpeptidation reaction. The transpeptidation reaction included 40 mM glycylglycine (glygly, Sigma, St. Louis, Mo.) as the acceptor. The concentration of the substrate for the transpeptidation reaction, L-GpNA (Sigma) was varied from 0.25 mM to 3 mM. The concentration of L-GpNA was 3 mM for experiments in which the concentration of glygly was varied. To initiate the transpeptidation reaction, 4 mU GGT were added.
1. […] 2, which describes a ping pong kinetic mechanism. […] 3 and 4. […] 5 (25).
In eq. […] Data for noncompetitive inhibition were fitted to eq. 6. […] 6 [25].
Initial Rate Studies with D-GpNA and L-GpNA: In this study, the inhibition of both the GGT hydrolysis and transpeptidation reactions by OU749 and a new series of thiadiazol sulfonamide analogs was studied. The hydrolysis and transpeptidation reactions were analyzed separately by using different stereo-isomers of the γ-glutamyl-p-nitroanilide (GpNA) substrate. The kinetics of both reactions were first characterized in the absence of inhibitors. Cleavage of the γ-glutamyl bond of either D-GpNA or L-GpNA releases p-nitroanaline, which has an OD405 of 7,680 M^−1 cm^−1, allowing for the reactions to be monitored continuously with high sensitivity. The D-glutamyl isomer of GpNA was used as the substrate for the hydrolysis reaction, in which water serves as the acceptor. The L-glutamyl isomer of GpNA, with glycylglycine (GlyGly) as an acceptor, was used for the transpeptidation reaction. L-GpNA can serve as both a substrate and a low affinity acceptor, while D-GpNA is unable to serve as an acceptor (18, 21, 26). Therefore, in the absence of an added acceptor GGT exclusively catalyzes a hydrolysis reaction with D-GpNA as the substrate. When L-GpNA is used as a substrate, the GGT reaction is a mixture of both the hydrolysis and transpeptidation reactions. Under these conditions, the rate of the reaction is the sum of hydrolysis and transpeptidation reactions, with the hydrolysis reaction contributing more at low L-GpNA concentrations and transpeptidation dominating at saturating substrate concentrations. […] However, the maximum rate (Vmax) obtained with L-GpNA was approximately 3-times faster than that measured with D-GpNA, and the KGpNA for L-GpNA was 5-times higher than that measured for D-GpNA. This is at least partially due to the ability of L-GpNA to serve as an acceptor, resulting in a transpeptidation reaction, which is faster than the hydrolysis reaction. Therefore, to study the hydrolysis reaction in isolation, D-GpNA was used as the substrate without any added acceptor.

[6] = test system: 786-0 cells; experiment: Cytotoxicity in dividing 786-O cells (MTT assay, 72 hours); type: cell-based, human; details: LD50 ratio, 786-O cells
Experimental: as §2, §3

[7] = Table 5, read-out: GlyGly with L-GpNA Kis
[8] = Table 5, read-out: L-GpNA with GlyGly Kii
[9] = GlyGly varied, 3 mM L-GpNA, Table 2, read-out: Transpeptidation GlyGly Kis
[10] = L-GpNA varied, 40 mM GlyGly, Table 2, read-out: Transpeptidation L-GpNA Kii

T1 sequence (P19440 381-569 limits assumed): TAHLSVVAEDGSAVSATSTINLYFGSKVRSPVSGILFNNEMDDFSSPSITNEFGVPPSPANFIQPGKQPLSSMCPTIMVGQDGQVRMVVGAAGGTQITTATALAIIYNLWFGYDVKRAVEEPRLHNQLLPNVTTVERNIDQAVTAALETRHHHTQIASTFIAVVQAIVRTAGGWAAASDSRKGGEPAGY
T1 sequence (P19440 27-380 limits assumed): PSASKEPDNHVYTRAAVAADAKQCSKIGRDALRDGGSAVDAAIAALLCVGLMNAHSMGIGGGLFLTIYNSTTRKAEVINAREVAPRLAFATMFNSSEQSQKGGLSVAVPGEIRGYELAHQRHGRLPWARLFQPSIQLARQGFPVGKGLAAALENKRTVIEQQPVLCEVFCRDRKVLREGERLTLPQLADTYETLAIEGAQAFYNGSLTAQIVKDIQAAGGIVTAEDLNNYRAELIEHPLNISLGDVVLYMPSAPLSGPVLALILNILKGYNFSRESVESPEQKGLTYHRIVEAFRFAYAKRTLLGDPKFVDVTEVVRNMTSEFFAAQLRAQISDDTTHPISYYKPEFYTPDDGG
T2 sequence (P19440 381-569 limits assumed): as the sequence (P19440 381-569 limits assumed) above
T2 sequence (P19440 27-380 limits assumed): as the sequence (P19440 27-380 limits assumed) above
T3 sequence (P19440 381-569 limits assumed): as the sequence (P19440 381-569 limits assumed) above
T3 sequence (P19440 27-380 limits assumed): as the sequence (P19440 27-380 limits assumed) above

Structure (SMILES): Cc1ccc(Cc2nnc(NS(=O)(=O)c3ccc(N)cc3)s2)cc1 [Compound 22]
- Ki [1]: 31 ± 1 µM
- Ki ([2]; Table 5): 82 ± 13 µM
- CC50 at 72 h [3]: 727 ± 0.02 µM
- Ki [4, 7]: 6 ± 1 µM
- Ki [4, 8]: 30 ± 4 µM

Structure (SMILES): N[C@@H](CCC(=O)N[C@@H](CS)C(=O)NCC(=O)O)C(=O)O [GSH, glutathione, reference compound]
- Ki [1]: 10 ± 1.2 µM
- Ki ([5]; absence of GlyGly, read-out: Kis of GSH vs L-GpNA): 73 ± 6 µM
- Ki ([4]; in the presence of 3 mM L-GpNA, read-out: Kii of GSH vs GlyGly): 3000 ± 500 µM
- Ki ([4]; in the presence of 3 mM L-GpNA, read-out: Kis of GSH vs GlyGly): 800 ± 100 µM
- Ki ([4]; in the presence of 40 mM GlyGly, read-out: Kii of GSH vs L-GpNA): 1700 ± 20 µM
- Ki ([4]; in the presence of 40 mM GlyGly, read-out: Kis of GSH vs L-GpNA): 1400 ± 10 µM

Structure (SMILES): N[C@@H](CCC(=O)Nc1ccc([N+](=O)[O-])cc1)C(=O)O [L-GpNA, L-gamma-glutamyl para-nitroanilide]
- KGpNA relative to D-GpNA ([5]; minus acceptor): 5 times
- V ([5]; minus acceptor): 6.5 ± 0.2 mM/min/nM
- V/KGpNA ([5]; minus acceptor): 1.3e+08 ± 3.3e+06 M⁻¹ s⁻¹
- second order rate constant ([5]; minus acceptor): 1.3e+08 M⁻¹ s⁻¹
- KGlyGly ([5]; plus acceptor GlyGly): 9.9 ± 0.9 mM
- V ([5]; plus acceptor GlyGly): 141 ± 11 mM/min/nM
- V/KGlyGly ([5]; plus acceptor GlyGly): 2.33e+08 ± 1.7e+07 M⁻¹ s⁻¹
- V/KGpNA ([5]; plus acceptor GlyGly): 1.95e+09 ± 1.5e+08 M⁻¹ s⁻¹
- fold increase of Vmax in the presence of GlyGly [5]: 22 fold

Structure (SMILES): N[C@H](CCC(=O)Nc1ccc([N+](=O)[O-])cc1)C(=O)O [D-GpNA, D-gamma-glutamyl para-nitroanalide]
- V ([5]; minus acceptor): 2.1 ± 0.2 mM/min/nM
- V/KGpNA ([5]; minus acceptor): 2.2e+08 ± 1.7e+06 M⁻¹ s⁻¹
- second order rate constant ([5]; minus acceptor): 2.17e+08 M⁻¹ s⁻¹
- KGlyGly ([5]; plus acceptor GlyGly): 7.0 ± 0.3 mM
- V ([5]; plus acceptor GlyGly): 53 ± 11 mM/min/nM
- V/KGlyGly ([5]; plus acceptor GlyGly): 1.27e+08 ± 2.5e+07 M⁻¹ s⁻¹
- V/KGpNA ([5]; plus acceptor GlyGly): 2.12e+08 ± 4.17e+07 M⁻¹ s⁻¹
- fold increase of Vmax in the presence of GlyGly [5]: 25 fold

Structure (SMILES): Nc1ccc(S(=O)(=O)Nc2nnc(Cc3ccc(F)cc3)s2)cc1 [Compound 26]
- Ki [1]: 24 ± 2 µM
- Ki ([2]; Table 5): 355 ± 16 µM
- Ki [4, 7]: 47 ± 7 µM
- Ki [4, 8]: 58 ± 4 µM

Structure (SMILES): COc1ccc(Cc2nnc(NS(=O)(=O)c3ccc(Cl)c(Cl)c3)s2)cc1 [Compound 8]
- Ki [1]: 3160 ± 90 µM
- Ki ([2]; Table 6): > 250 µM
- Ki [4, 9]: 10.8 ± 0.8 µM
- Ki [4, 10]: 18.2 ± 0.7 µM

Structure (SMILES): COc1ccc(Cc2nnc(NS(=O)(=O)c3cccc(Cl)c3)s2)cc1 [Compound 3]
- Ki [1]: 74.9 ± 2.2 µM
- Ki ([2]; Table 6): 67 ± 6 µM
- fold more potent than OU749 in inhibiting GSH hydrolysis ([2]; relative to OU749): 5.6 fold
- CC50 at 72 h [3]: 382 µM
- fold less toxic (cytotoxic) than OU749 [6]: 3 fold
- Ki [4, 9]: 11.9 ± 1.1 µM
- Ki [4, 10]: 22 ± 0.7 µM

Structure (SMILES): COc1ccc(Cc2nnc(NS(=O)(=O)c3ccc(C(C)(C)C)cc3)s2)cc1 [Compound 7]
- Ki [1]: 341 ± 6.4 µM
- fold less effective than OU749 in inhibiting hydrolysis of D-GpNA ([1]; relative to OU749): 2-5 fold
- Ki ([2]; Table 4): > 250 µM
- Ki [4, 9]: 143 ± 8.7 µM
- Ki [4, 10]: 150 ± 13 µM

Structure (SMILES): Cc1cccc(Cc2nnc(NS(=O)(=O)c3ccc(N)cc3)s2)c1 [Compound 24]
- Ki ([1]; read-out: D-GpNA Kii, Table 5): 109 ± 4 µM
- Ki ([2]; Table 5): 121 ± 5 µM
- Ki [4, 7]: 30 ± 5 µM
- Ki [4, 8]: 129 ± 17 µM

Structure (SMILES): Nc1ccc(S(=O)(=O)Nc2nnc(Cc3ccc(Cl)cc3)s2)cc1 [Compound 28]
- Ki [1]: 56 µM
- Ki ([2]; Table 5): 419 ± 27 µM
- Ki [4, 7]: 7 ± 1 µM
- Ki [4, 8]: 54 ± 1 µM
